The subject of one experiment is TNF-α. In words: Real time RT-qPCR of pro-inflammatory cytokine TNF-α in LPS-treated IMG microglia cells. The experiment is classed as cell-based, mouse. To be noted: LPS 100 ng/ml. On the procedure:
(§1) The IMG cells, a mouse microglia cell line used in the experiments, were cultured, and maintained in DMEM complete medium (HyClone) containing 10% fetal bovine serum (FBS; Australian Orgin, HyClone, Logan, UT, USA) and 1% penicillin/streptomycin (P/S; HyClone) at 37° C. with 5% CO2 in a humidified CO2 incubator (311-TIF, Thermo Fisher Scientific Forma, MA, USA). Total 2×10^5 cells were seeded in each well of the 6-well plate and they were incubated for 24 h in the humidified CO2 incubator as mentioned above. Further, 100 ng/ml of LPS and the drugs, AR1001 2 μM and GR modulator (CORT-108297) 6, 12, 24, 36, 48 μM were treated individually or in combination.
(§2) The cells were scraped using a cell scraper, and 2 mL of the culture solution was collected in a 15 mL conical tube, It was centrifuged at 3,000 RPM for 5 min and the supernatant (culture solution) was discarded. The pellet was resuspended in 1 mL of Trizol and it was transferred to 1.5 mL microfuge tube. Further, 0.2 mL of chloroform was added and it was vortexed for 1 min. The microfuge tube was kept in a stand for 2 min at room temperature. After centrifugation at 12,000×g for 10 min at 4° C., the supernatant (approx 500 μL) separated in a fresh microfuge tube. Equal volume of isopropanol was added to the supernatant and mixed the solution well. It was put in the microfuge tube stand for 10 min at room temperature and thereafter, centrifuged at 12,000×g for 10 min at 4° C. The supernatant was discarded and the pellet was washed twice with 75% ethanol. The RNA pellet was dried and dissolved in 10 μL DEPC treated water. After quantification of the RNA, it was converted to cDNA following the PrimeScript™ II 1st strand cDNA Synthesis Kit (Takara) protocol.
(§3) The sample cDNAs were amplified with gene specific primers and SYBR green PCR master mix (ThermoFisher) in the model Quant Studio 5 Thermal cycler (Applied biosystems). The amplification conditions were as follows—polymerase activation at 50° C. for 2 min, predenaturation preceding at 95° C. for 10 min, total 40 cycles of denaturation at 95° C. for 15 sec, annealing at 60° C. for 30 sec and extension at 72° C. for 30 sec. The specific primer sequences are mentioned in Table-1.
On the technique in general: Real-time PCR tracks product formation cycle by cycle.

For a further experiment, the system named is IL-1β. Kind of experiment: Real time RT-qPCR of pro-inflammatory cytokine IL-1β in LPS-treated IMG microglia cells. The format is cell-based, mouse. To be noted: LPS 100 ng/ml. On the procedure:
as §1, §2, §3

For a further experiment, the system named is Aβ42. Kind of experiment: Amyloid Beta 42 Human ELISA, amount of Aβ42 in RA-differentiated SH-SY5Y cells treated with Aβ1-42 oligomer. To be noted: 24 h. The format is cell-based. On the procedure: To determine the amount of change in amyloid beta, […] cells were dispensed into T-25 flask.
For cell adhesion and stabilization, cells were incubated for 24 hours in DMEM/F12 Complete Medium (HyClone) containing 10% FBS (HyClone) and 1% P/S (HyClone) at 37° C. under 5% CO2 condition in a CO2 incubator (Thermo Fisher Scientific Forma).
After 24 hours of cell dispensing, the cell culture medium is removed for neuron-like differentiation, and replaced with DMEM/F12 differentiation media containing 1% FBS (HyClone), 1% P/S (HyClone), 10 μM all-trans-retinoic acid (RA; Sigma--Aldrich, St. Louis, MO, USA).
On the third day of differentiation, the medium was replaced with a new DMEM/F12 differentiation medium. On the sixth day of differentiation, the medium of the untreated control group was replaced with a new DMEM/F12 differentiation medium and the medium of the sample treatment group was replaced with a various conditions by adding a new DMEM/F12 differentiation medium under various conditions.
Human Aβ1-42 (Abeam, Cambridge, MA, USA) was added upto 10 μM to DMEM/F12 Complete Medium (HyClone) containing 1% FBS (HyClone) and 1% P/S (HyClone) to form Aβ1-42 oligomer and left for 3 hours in a CO2 incubator (Thermo Fisher Scientific Forma) under 37° C. and 5% CO2 conditions to form Aβ1-42 oligomer.
In order to confirm the Aβ 1-42 change, the existing cell culture medium was removed from the RA-differentiated SH-SY5Y neuron-like cells, replaced with DMEM/F12 Complete Medium (HyClone) containing Aβ1-42 oligomer ([…] Fisher Scientific Forma) at 37° C. under 5% CO2 conditions to induce Aβ1-42 oligomer-induced cell damage.
In order to measure the amount of Aβ42 (pg/mL) in the cell, the cells were recovered and treated with the cell lysis buffer.
Thereafter, after centrifugation at 14,000 rpm 4° C. for 10 minutes, the supernatant was transferred to recover the protein. The amount of protein was quantified using the Pierce™ BCA Protein Assay Kit (Thermo Fisher Scientific). Then, the amount of Aβ42 in cells was measured using a Human Aβ42 ELISA Kit (Invitrogen).

Setting [1] is: CORT-108297 0.1 μM alone, SH-SY5Y, Aβ 10 μM.
Setting [2] is: CORT-108297 0.3 μM alone, SH-SY5Y, Aβ 10 μM.
Where [3] appears, read: CORT-108297 0.6 μM alone, SH-SY5Y, Aβ 10 μM.
The mark [4] stands for this setting: CORT-108297 1.2 μM alone, SH-SY5Y, Aβ 10 μM.
Setting [5] is: CORT-108297 1.8 μM alone, SH-SY5Y, Aβ 10 μM.
The mark [6] stands for this setting: CORT-108297 2.4 μM alone, SH-SY5Y, Aβ 10 μM.
The mark [7] stands for this setting: CORT-108297 3.0 μM alone, SH-SY5Y, Aβ 10 μM.

Data on two molecules can be found in patent US20240058324A1, “COMPOSITION FOR PREVENTION AND TREATING DEMENTIA THROUGH THE COMBINATION OF PDE5 INHIBITORS AND GLUCOCORTICOID RECEPTOR ANTAGONISTS” (ARIBIO CO., LTD., priority 2021, published 2024).

As for `CCCOc1ccc(S(=O)(=O)N2CCN(CCO)CC2)cc1-c1nc2c(CCC)cn(CC)c2c(=O)[nH]1` [AR1001, mirodenafil], the “TNFα Reduction (%)” value in the experiment on TNF-α (AR1001 2 μM alone) stood at 8.58%. Further, the “IL1β Reduction (%)” value in the experiment on IL-1β (AR1001 2 μM alone) was 4.70%. In addition, in the experiment with Aβ42 (AR1001 0.1 μM alone, SH-SY5Y neuron-like cells, Aβ1-42 oligomer 10 μM), the “Aβ42 concentration Average concentration” value is on record as 46.45 pg/mL. The “Aβ42 Reduction rate Average reduction rate” value in the experiment on Aβ42 (AR1001 0.1 μM alone, SH-SY5Y, Aβ 10 μM) stood at 1.77%.

Regarding `CCOC[C@]12Cc3cnn(-c4ccc(F)cc4)c3C=C1CCN(S(=O)(=O)c1ccc(C(F)(F)F)cc1)C2` [CORT-108297], the “TNFα Reduction (%)” value with TNF-α (CORT-108297 6 μM alone) was 9.41%; in the experiment with TNF-α (CORT-108297 12 μM alone), 15.52%; in the experiment with TNF-α (CORT-108297 24 μM alone), 23.86%; in the experiment with TNF-α (CORT-108297 36 μM alone), 37.30%; in the experiment on TNF-α (CORT-108297 48 μM alone), 52.51%. The “IL1β Reduction (%)” value in the experiment on IL-1β (CORT-108297 6 μM alone) came out at 7.02%; with IL-1β (CORT-108297 12 μM alone), 8.38%; with IL-1β (CORT-108297 24 μM alone) it was 17.88%; with IL-1β (CORT-108297 36 μM alone), 35.86%; with IL-1β (CORT-108297 48 μM alone) it was 57.37%. The “Aβ42 Reduction rate Average reduction rate” value in the experiment with Aβ42 (setting [1]) was 4.26%; in the experiment with Aβ42 (setting [2]), 4.24%; in the experiment on Aβ42 (setting [3]), 6.88%; in the experiment with Aβ42 (setting [4]), 9.34%; in the experiment on Aβ42 (setting [5]), 11.97%; with Aβ42 (setting [6]), 17.91%. The “Aβ42 Reduction rate Average reduction rate” value with Aβ42 (setting [7]) was found to be 31.34%. Further, the “Aβ42 concentration Average concentration” value is recorded as 45.40 pg/mL in the experiment on Aβ42 (setting [1]); 45.40 pg/mL with Aβ42 (setting [2]); 44.29 pg/mL with Aβ42 (setting [3]); 43.25 pg/mL in the experiment on Aβ42 (setting [4]); 42.14 pg/mL in the experiment on Aβ42 (setting [5]); 39.64 pg/mL in the experiment with Aβ42 (setting [6]). Also, the “Aβ42 concentration Average concentration” value in the experiment with Aβ42 (setting [7]) is on record as 33.97 pg/mL.
